Experimental data as given in ChEMBL document CHEMBL1201862, “PubChem BioAssay data set” (2004).
Where “and” joins values, the source holds several entries; their conditions need not be identical. Equal entries are not always repeated.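 1) Cells in 96-well plates. 2) Compound, 48 h, 5 concentrations. 3) Linear interpolation between surrounding doses. 4) Unreached endpoint = highest concentration. Abbreviation: GI50, concentration required for 50% inhibition of growth.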 Calls of active or inactive are those of the source. No stated cut-off is given here; in the data, active = GI50 up to about 1.1 µM and inactive = higher.

Tests used:
Test in all cases: NCI-60 cell line screen, 48 h
[1] = tested on: MCF7
[2] = tested on: OVCAR-5
[3] = tested on: OVCAR-4
[4] = tested on: SNB-75
[5] = tested on: SN12C
[6] = tested on: DLD-1
[7] = tested on: Malme-3M
[8] = tested on: SK-MEL-2
[9] = tested on: MDA-MB-435
[10] = tested on: HOP-92
[11] = tested on: DU-145
[12] = tested on: HOP-62
[13] = tested on: OVCAR-3
[14] = tested on: UO-31
[15] = tested on: CAKI-1
[16] = tested on: K562
[17] = tested on: SNB-78
[18] = tested on: NCI-H23
[19] = tested on: BT-549
[20] = tested on: Hs-578T
[21] = tested on: NCI/ADR-RES
[22] = tested on: SR
[23] = tested on: LXFL 529
[24] = tested on: SW-620
[25] = tested on: M19-MEL
[26] = tested on: KM-20L2
[27] = tested on: NCI-H226
[28] = tested on: UACC-62
[29] = tested on: EKVX
[30] = tested on: A549
[31] = tested on: M14
[32] = tested on: RPMI-8226
[33] = tested on: TK-10
[34] = tested on: IGROV-1
[35] = tested on: MDA-MB-231
[36] = tested on: KM12
[37] = tested on: SF-268
[38] = tested on: SK-OV-3
[39] = tested on: PC-3
[40] = tested on: U-251
[41] = tested on: A498
[42] = tested on: RXF 393
[43] = tested on: T47D
[44] = tested on: MOLT-4
[45] = tested on: MDA-N
[46] = tested on: HT-29
[47] = tested on: HOP-18
[48] = tested on: HCT-116
[49] = tested on: DMS-114
[50] = tested on: SK-MEL-28
[51] = tested on: UACC-257
[52] = tested on: 786-0
[53] = tested on: HCT-15
[54] = tested on: SNB-19
[55] = tested on: SF-295
[56] = tested on: SK-MEL-5
[57] = tested on: CCRF-CEM
[58] = tested on: OVCAR-8
[59] = tested on: LOX IMVI
[60] = tested on: NCI-H460
[61] = tested on: SF-539
[62] = tested on: ACHN
[63] = tested on: COLO 205

Structure (SMILES): COc1cc2c3cc1Oc1c(OC)c(OC)cc4c1C(Cc1ccc(cc1)Oc1cc(ccc1O)CC3N(C)CC2)N(C)CC4 (stereo not drawn)
- GI50 [1]: 6.44 µM (inactive)
- GI50 [2]: 18.5 µM (inactive) and 14.8 µM (inactive)
- GI50 [3]: 12.4 µM (inactive) and 14.1 µM (inactive)
- GI50 [4]: 11.1 µM (inactive) and 11.8 µM (inactive)
- GI50 [5]: 21.7 µM (inactive) and 15.1 µM (inactive)
- GI50 [6]: 11.4 µM (inactive)
- GI50 [7]: 7.01 µM (inactive) and 14 µM (inactive)
- GI50 [8]: 12.9 µM (inactive) and 8.69 µM (inactive)
- GI50 [9]: 8.09 µM (inactive)
- GI50 [10]: 16.2 µM (inactive)
- GI50 [11]: 10.6 µM (inactive)
- GI50 [12]: 18.1 µM (inactive)
- GI50 [13]: 13.6 µM (inactive) and 15.8 µM (inactive)
- GI50 [14]: 4.9 µM (inactive) and 8.28 µM (inactive)
- GI50 [15]: 14.3 µM (inactive) and 16.9 µM (inactive)
- GI50 [16]: 1.49 µM (inactive) and 1.71 µM (inactive)
- GI50 [17]: 20.9 µM (inactive)
- GI50 [18]: 12.8 µM (inactive) and 17.1 µM (inactive)
- GI50 [19]: 10.1 µM (inactive)
- GI50 [20]: 10.8 µM (inactive)
- GI50 [21]: 19.3 µM (inactive)
- GI50 [22]: 2.78 µM (inactive) and 2.06 µM (inactive)
- GI50 [23]: 13.6 µM (inactive)
- GI50 [24]: 10.3 µM (inactive) and 8.36 µM (inactive)
- GI50 [25]: 11.9 µM (inactive)
- GI50 [26]: 10.4 µM (inactive)
- GI50 [27]: 16.8 µM (inactive) and 18.9 µM (inactive)
- GI50 [28]: 8.89 µM (inactive) and 15.1 µM (inactive)
- GI50 [29]: 24.9 µM (inactive) and 13.1 µM (inactive)
- GI50 [30]: 14.9 µM (inactive) and 8.99 µM (inactive)
- GI50 [31]: 1.87 µM (inactive) and 2 µM (inactive)
- GI50 [32]: 6.64 µM (inactive)
- GI50 [33]: 12.1 µM (inactive) and 22.8 µM (inactive)
- GI50 [34]: 16.7 µM (inactive) and 11.4 µM (inactive)
- GI50 [35]: 10.1 µM (inactive)
- GI50 [36]: 11.9 µM (inactive) and 11.4 µM (inactive)
- GI50 [37]: 14.1 µM (inactive) and 10.8 µM (inactive)
- GI50 [38]: 13.4 µM (inactive) and 25.6 µM (inactive)
- GI50 [39]: 10.4 µM (inactive)
- GI50 [40]: 11.2 µM (inactive) and 9.08 µM (inactive)
- GI50 [41]: 16.1 µM (inactive)
- GI50 [42]: 1.29 µM (inactive) and 1.09 µM (active)
- GI50 [43]: 11.3 µM (inactive)
- GI50 [44]: 4.41 µM (inactive) and 5.09 µM (inactive)
- GI50 [45]: 4.73 µM (inactive)
- GI50 [46]: 2.78 µM (inactive) and 5.09 µM (inactive)
- GI50 [47]: > 100 µM (inactive)
- GI50 [48]: 4.6 µM (inactive) and 6.76 µM (inactive)
- GI50 [49]: 11.9 µM (inactive)

Structure (SMILES): CCOC(=O)N1CCC(N[C@@H]2c3cc4c(cc3[C@@H](c3cc(OC)c(O)c(OC)c3)[C@H]3C(=O)OC[C@@H]32)OCO4)CC1
- GI50 [4]: 2.67 µM (inactive)
- GI50 [6]: 5.21 µM (inactive)
- GI50 [50]: 7.08 µM (inactive)
- GI50 [51]: 5.16 µM (inactive)
- GI50 [52]: 1.15 µM (inactive)
- GI50 [7]: 3.46 µM (inactive)
- GI50 [8]: 5.81 µM (inactive)
- GI50 [53]: 0.796 µM
- GI50 [54]: 0.69 µM (active)
- GI50 [55]: 0.499 µM (active)
- GI50 [10]: 0.5 µM (active)
- GI50 [56]: 1.48 µM (inactive)
- GI50 [12]: 0.714 µM (active)
- GI50 [13]: 5.06 µM (inactive)
- GI50 [14]: 1.02 µM (active)
- GI50 [15]: 478 nM (active)
- GI50 [16]: 3.98 µM (inactive)
- GI50 [17]: 10.2 µM (inactive)
- GI50 [57]: 0.697 µM (active)
- GI50 [18]: 527 nM (active)
- GI50 [58]: 1.85 µM (inactive)
- GI50 [23]: 7.53 µM (inactive)
- GI50 [24]: 2.58 µM (inactive)
- GI50 [25]: 3.12 µM (inactive)
- GI50 [28]: 1.03 µM (active)
- GI50 [29]: 2.69 µM (inactive)
- GI50 [31]: 1.7 µM (inactive)
- GI50 [34]: 2.9 µM (inactive)
- GI50 [59]: 1.26 µM (inactive)
- GI50 [36]: 2.86 µM (inactive)
- GI50 [37]: 3.5 µM (inactive)
- GI50 [38]: 800 nM (active)
- GI50 [41]: 0.358 µM (active)
- GI50 [60]: 0.065 µM (active)
- GI50 [61]: 1.23 µM (inactive)
- GI50 [62]: 0.431 µM (active)
- GI50 [63]: 4.3 µM (inactive)
- GI50 [46]: 4.13 µM (inactive)
- GI50 [48]: 3.4 µM (inactive)
